The term mass density denotes mass per unit of volume.

From the NIST ThermoML archive (doi:10.1016/j.tca.2019.178319) come the findings set out here.

The conditions of the data set: Crystal; for mass density: 298 K, 101.33 kPa, X-ray diffraction; for Normal melting temperature: DTA.

Structures are written as SMILES. Numbers after ± are expanded uncertainties.

As for `[I][Bi]([I])[I]` [bismuth triiodide], the mass density was determined as 5770 ± 20 kg/m3 and the Normal melting temperature amounted to 407 ± 4 °C.

In the case of `[Bi+3].[Bi+3].[Se-2].[Se-2].[Se-2]` [bismuth(III) selenide], the mass density was 7660 ± 30 kg/m3 and the Normal melting temperature came out at 707 ± 6 °C.

Consider `[Bi+3].[Bi+3].[S-2].[S-2].[S-2]` [bismuth(III) sulfide], for which the mass density is reported as 6800 ± 20 kg/m3 and the Normal melting temperature came to 777 ± 6 °C.
